Results from patent publication US12570639B2, “Tetrahydroquinoline derivative and medicinal use thereof” (Toray Industries, Inc., priority 2020, dated 2026).
Where a name gives a salt, the structure may show the parent alone.

Assays:
[1] = In vitro radical scavenging action (DPPH method); conditions: 30 minutes at room temperature, maximum concentration 100 μmol/L
Procedure: Radical scavenging action was evaluated using the DPPH method in the compound of Comparative Example 1, which is a tetrahydroquinoxaline derivative, and in the tetrahydroquinoline derivative (I) or a pharmaceutically acceptable salt thereof. The DPPH method was performed using an antioxidant capacity measurement kit (Dojindo Laboratories).
A test compound was dissolved in DMSO, and the resulting solution was then mixed with an assay buffer and a DPPH solution, which are included in the kit, to a total volume of 200 μL to obtain a final concentration of 10% DMSO, and the reaction was allowed to proceed. Wells added with 100 μmol/L ferrostatin-1, a radical scavenger, were grouped as “control,” and wells added with not test compound were grouped as “background.” The test compound was serially diluted 3-fold starting from a maximum concentration of 100 μmol/L, and the diluted test compound (1.2, 3.7, 11.1, 33.3, or 100 μmol/L) was added and allowed to react at room temperature. Thirty minutes after the reaction, the absorbance at 517 nm was measured, and the average absorbance value was calculated (N=2). The radical scavenging action of the test compound (hereinafter referred to as radical scavenging rate, %) was calculated based on the equation 2 below. The EC50 value of the test compound was calculated from the radical scavenging rate. Radical scavenging rate (%)=[1−{(Average absorbance value at 517 nm measured when a test compound is added)−(Average absorbance value at 517 nm measured in the background)}/{(Average absorbance value at 517 nm measured in the control)−(Average absorbance value at 517 nm measured in the background)}]×100 Equation 2
A note “no detection of radical scavenging action (N.D.),” is given to compounds with a EC50 of >100 μmol/L.

[2] = system: MOG-induced experimental autoimmune encephalomyelitis mouse model; experiment: Activity assessment 1 in MOG-induced experimental autoimmune encephalomyelitis mouse model; type: in vivo, C57BL/6J mice; conditions: 30 mg/kg orally twice daily for 15 days starting 55 days after MOG35-55 inoculation
Procedure: The effect of the compound of Example 1 on increase of neurological score was assessed in the MOG-induced experimental autoimmune encephalomyelitis mouse model. The MOG-induced experimental autoimmune encephalomyelitis mouse model was produced according to the method of Jianfeng et al. (The Journal of Immunology, 2009, vol. 182, p. 4036-4045) with partial modification. A PBS solution prepared to contain a synthetic partial peptide of MOG (MOG35-55; CSBio) at a concentration of 4 mg/mL was mixed with an equal volume of Freund's complete adjuvant, and a total of 0.1 mL (0.05 mL per flank) of the resulting MOG35-55 dosing solution was inoculated intradermally into the bilateral flanks of C57BL/6J mice (male, 10 weeks old, Charles River Laboratories Japan, Inc.). On the day of inoculation of the MOG35-55 dosing solution and on the second day after the inoculation, 200 μL of pertussis toxin (Sigma Co. LLC) prepared at a concentration of 1 μg/mL was further administered intraperitoneally to the mice. A test compound was administered orally at a dose of 30 mg/kg twice daily for a period of 15 days starting 55 days after the inoculation of the MOG35-55 dosing solution. The test compound was suspended in a 0.5% methylcellulose solution (hereinafter referred to as vehicle), and the resulting suspension was used. […]

[3] = system: Human fibrosarcoma cells (HT-1080 cells); experiment: In vitro inhibitory action against ferroptosis (Erastin-induced cell death, Cell Counting Kit-8); type: cell-based; conditions: Erastin 3 μmol/L, 24 hours
[4] = system: MOG-induced experimental autoimmune encephalomyelitis mouse model; experiment: Activity assessment 2 in MOG-induced experimental autoimmune encephalomyelitis mouse model; type: in vivo, C57BL/6J mice; conditions: 30 mg/kg orally twice daily for 15 days starting 50 days after MOG35-55 inoculation; vs vehicle-dosing group (1.93)
Procedure: (§1) A PBS solution prepared to contain a synthetic partial peptide of MOG (MOG35-55; CSBio) at a concentration of 4 mg/mL was mixed with an equal volume of Freund's complete adjuvant, and a total of 0.1 mL (0.05 mL per flank) of the resulting MOG35-55 dosing solution was inoculated intradermally into the bilateral flanks of C57BL/6J mice (male, 10 weeks old, Charles River Laboratories Japan, Inc.). On the day of inoculation of the MOG35-55 dosing solution and on the second day after the inoculation, 200 μL of pertussis toxin (Sigma Co. LLC) prepared at a concentration of 1 μg/mL was further administered intraperitoneally to the mice.
(§2) The compound of Example 11, the compound of Example 32, and the compound of Example 36 were used as test compounds to assess the effect of the test compounds on increase of neurological score in the MOG-induced experimental autoimmune encephalomyelitis mouse model. The study was performed in the same manner as in Example 175, except that the start day for administrating a test compound, the scoring method, and the timing of determining the neurological score were changed from those in Example 175. Each test compound was administered orally at a dose of 30 mg/kg twice daily for a period of 15 days starting 50 days after the inoculation of the MOG35-55 dosing solution. In addition, the score was determined by the following criteria: 0, normal; 0.5, partial drooping tail; 1, full drooping tail or hind-limb weakness; 2, full drooping tail and hind-limb weakness; 3, hind-limb partial paralysis; 4, hind-limb complete paralysis; 5, fore- and hind-limb complete paralysis.
The vertical axis represents neurological score (mean±standard error, n=7 or 8). On the horizontal axis, “Vehicle” represents the vehicle-dosing group, and “Compound of Example 11” represents the compound of Example 11—dosing group, and “Compound of Example 32” represents the compound of Example 32—dosing group, and “Compound of Example 36” represents the compound of Example 36—dosing group.

[5] = system: MOG-induced experimental autoimmune encephalomyelitis mouse model; experiment: Activity assessment 3 in MOG-induced experimental autoimmune encephalomyelitis mouse model; type: in vivo, C57BL/6J mice; conditions: 10 mg/kg orally twice daily for 10 days starting 53 days after MOG35-55 inoculation; vs vehicle-dosing group (2.25)
Procedure: as §1, §2
The compound of Example 144, the compound of Example 171, and the compound of Example 172 were used as test compounds to assess the effect of the test compounds on increase of neurological score in the MOG-induced experimental autoimmune encephalomyelitis mouse model. […]

[6] = evaluation concentration 30 μmol/L
[7] = evaluation concentration 10 μmol/L

| EC50 [1] | SMILES | Ferroptosis inhibition rate (%) [3, 6] | other results |
| --- | --- | --- | --- |
| > 100 µM | Cl.c1ccc(C2CCc3ccccc3N2)cc1 (stereo not drawn) [Example 1, 2-phenyl-1,2,3,4-tetrahydroquinoline hydrochloride] | 110.5% | neurological score ([2]; next day after last administration, mean, n=7): 1.29; neurological score reduction rate ([2]; vs vehicle-dosing group (2.43)): 46.9% |
| – | c1ccc2c(c1)CCC(c1cn[nH]c1)N2 (stereo not drawn) [Example 11, 2-(1H-pyrazol-4-yl)-1,2,3,4-tetrahydroquinoline] | – | neurological score reduction rate [4]: 54.4%; Ferroptosis inhibition rate (%) ([3]; evaluation concentration 50 μmol/L): 106.0% |
| > 100 µM | NS(=O)(=O)c1ccc(C2CCc3ccccc3N2)cc1 (stereo not drawn) [Example 32, 4-(1,2,3,4-tetrahydroquinolin-2-yl)benzenesulfonamide] | 100.5% | neurological score reduction rate [4]: 55.4% |
| > 100 µM | NC(=O)c1ccc(C2CCc3ccccc3N2)cc1 (stereo not drawn) [Example 36, 4-(1,2,3,4-tetrahydroquinolin-2-yl)benzamide] | 98.76% | neurological score reduction rate [4]: 45.1% |
| > 100 µM | O=C(Cc1ccc2c(c1)CCC(c1ccccc1)N2)N1CC(O)C1 (stereo not drawn) [Example 144, 1-(3-hydroxyazetidin-1-yl)-2-(2-phenyl-1,2,3,4-tetrahydroquinolin-6-yl)ethan-1-one hydrochloride] | – | neurological score reduction rate [5]: 25.0%; Ferroptosis inhibition rate (%) ([3]; evaluation concentration 30 μmol/L, hydrochloride): 96.14% |
| > 100 µM | O=C(Cc1ccc2c(c1)CCC(c1ccccc1)N2)NC1COC1 (stereo not drawn) [Example 148, N-(oxetan-3-yl)-2-(2-phenyl-1,2,3,4-tetrahydroquinolin-6-yl)acetamide] | 86.55% | – |
| > 100 µM | O=C(Cc1ccc2c(c1)CCC(c1ccccc1)N2)N1CC(F)(F)C1 (stereo not drawn) [Example 149, 1-(3,3-difluoroazetidin-1-yl)-2-(2-phenyl-1,2,3,4-tetrahydroquinolin-6-yl)ethan-1-one] | 99.36% | – |
| > 100 µM | CN(CCO)C(=O)Cc1ccc2c(c1)CCC(c1ccccc1)N2 (stereo not drawn) [Example 150, N-(2-hydroxyethyl)-N-methyl-2-(2-phenyl-1,2,3,4-tetrahydroquino-lin-6-yl)acetamide] | 106.9% | – |
| > 100 µM | O=C(Cc1ccc2c(c1)CCC(c1ccccc1)N2)N1CCC1 (stereo not drawn) [Example 151, 1-(azetidin-1-yl)-2-(2-phenyl-1,2,3,4-tetrahydroquinolin-6-yl)ethan-1-one] | 108.2% | – |
| > 100 µM | O=C(Cc1ccc2c(c1)CCC(c1ccccc1)N2)NC1CC1 (stereo not drawn) [Example 152, N-cyclopropyl-2-(2-phenyl-1,2,3,4-tetrahydroquinolin-6-yl)acetamide] | 108.1% | – |
| > 100 µM | O=C(Cc1ccc2c(c1)CCC(c1ccccc1)N2)NC1CCC1 (stereo not drawn) [Example 155, N-cyclobutyl-2-(2-phenyl-1,2,3,4-tetrahydroquinolin-6-yl)acetamide] | 106.1% | – |
| > 100 µM | O=C1CN(C(=O)Cc2ccc3c(c2)CCC(c2ccccc2)N3)CCN1 (stereo not drawn) [Example 157] | 69.89% | – |
| > 100 µM | O=C(Cc1ccc2c(c1)CCC(c1ccccc1)N2)N1CCNCC1 (stereo not drawn) [Example 158, 2-(2-phenyl-1,2,3,4-tetrahydroquinolin-6-yl)-1-(piperazin-1-yl)ethan-1-one] | 55.98% | – |
| > 100 µM | O=C(Cc1ccc2c(c1)CCC(c1ccccc1)N2)N1CC(F)(F)C1 (stereo not drawn) [Example 160, 1-(3,3-difluoroazetidin-1-yl)-2-(2-phenyl-1,2,3,4-tetrahydroquinolin-6-yl)ethan-1-one] | – | Ferroptosis inhibition rate (%) [3, 7]: 99.11% |
| > 100 µM | O=C(Cc1ccc2c(c1)CCC(c1ccccc1)N2)N1CC(F)(F)C1 (stereo not drawn) [Example 161, 1-(3,3-difluoroazetidin-1-yl)-2-(2-phenyl-1,2,3,4-tetrahydroquinolin-6-yl)ethan-1-one] | – | Ferroptosis inhibition rate (%) [3, 7]: 94.01% |
| – | NS(=O)(=O)c1ccc(C2CNc3ccccc3C2)cc1 (stereo not drawn) [Example 171, 4-(1,2,3,4-tetrahydroquinolin-3-yl)benzenesulfonamide] | 90.71% | neurological score reduction rate [5]: 47.2% |
| – | NS(=O)(=O)c1ccc(C2CNc3ccccc3C2)cc1 (stereo not drawn) [Example 172, 4-(1,2,3,4-tetrahydroquinolin-3-yl)benzenesulfonamide] | 92.87% | neurological score reduction rate [5]: 27.8% |
